Tested on: human mast cell line (HMC-1.1)
Assay: Release of pro-pain and pro-inflammatory mediators (degranulation) by activated human mast cells
Type: cell-based
Conditions: HMC-1.1 activated by compound 48/80 or substance P; substances added individually or combined
Protocol: A human mast cell line (HMC-1.1) was activated both by compound 48/80 (a potent synthetic stimulant, available from Sigma-Aldrich) and by substance P (potent physiological stimulant, CAS number 33507-63-0). The release of pro-pain and pro-inflammatory mediators, such as histamine, TNF-α and IL-6, was then measured in the absence of PEA and melatonin, in the presence of PEA or melatonin alone as well as in the presence of PEA + melatonin. The use of mast cells of human origin, compared to classic murine mast cells, has allowed to measure, with high reliability, the release not only of histamine but also of protein mediators such as TNF-α and IL-6. The in vitro analysis then made it possible to evaluate the effects of the combination at the mast cell level in a highly specific and precise manner. A direct study on a biological organism, ultimately humans, would have been insensitive as the variation of pro-pain and pro-inflammatory mediators, detected in the blood or in any body fluid, would have depended on an action of PEA and melatonin on various cell types, and not exclusively on mast cells.

SMILES	reduction in the release of mast cell mediators (histamine, TNF-α, IL-6)
CCCCCCCCCCCCCCCC(=O)NCCO [PEA, palmitoylethanolamide]	comparable reduction in the release of mast cell mediators
COc1ccc2[nH]cc(CCNC(C)=O)c2c1 [melatonin]	comparable reduction in the release of mast cell mediators
